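Results reflect a 48-hour exposure of cells in 96-well plates to compound at five concentrations. Abbreviation: GI50, concentration required for 50% inhibition of growth. At the TGI there is no net growth.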
Columns and labels:
Assay in all cases: inhibition of tumour cell growth, NCI panel, 48 h
HCT-116 colon = test system: HCT-116 colon
UACC-257 melanoma = test system: UACC-257 melanoma
SF-268 CNS = test system: SF-268 CNS
MDA-MB-435 = test system: MDA-MB-435
A549 NSCLC = test system: A549 NSCLC
EKVX NSCLC = test system: EKVX NSCLC
RPMI-8226 leukemia = test system: RPMI-8226 leukemia
LOX IMVI melanoma = test system: LOX IMVI melanoma
NCI-H226 lung = test system: NCI-H226 lung
SF-539 CNS = test system: SF-539 CNS

In the case of `CC1(C)[C@H]2CC[C@]1(C)[C@H](OC(=O)NNC(=O)O[C@@H]1C[C@@H]3CC[C@@]1(C)C3(C)C)C2`, the TGI (HCT-116 colon) is reported as 34.5 µM, the TGI (UACC-257 melanoma) is reported as 33 µM and the TGI (SF-268 CNS) is reported as 33.1 µM. It also gave a TGI (MDA-MB-435) of 64.4 µM, a TGI (A549 NSCLC) of 25.1 µM and a TGI (EKVX NSCLC) of 31.2 µM. The TGI (RPMI-8226 leukemia) was 30.7 µM, the TGI (LOX IMVI melanoma) was greater than 100 µM and the TGI (NCI-H226 lung) was 34.1 µM. The TGI (SF-539 CNS) was 29.9 µM.
Molecule `CCOC(=O)c1cc2c3c(c(C(C)=O)c(O)c2[nH]1)N(CC(C)CC)CC3` (stereo not given) has a TGI (HCT-116 colon) greater than 100 µM, a TGI (UACC-257 melanoma) greater than 100 µM and a TGI (SF-268 CNS) greater than 100 µM. The TGI (MDA-MB-435) was greater than 100 µM, the TGI (A549 NSCLC) was greater than 100 µM and the TGI (EKVX NSCLC) was greater than 100 µM. The TGI (RPMI-8226 leukemia) was greater than 100 µM, the TGI (LOX IMVI melanoma) was greater than 100 µM and the TGI (NCI-H226 lung) was greater than 100 µM. The TGI (SF-539 CNS) was greater than 100 µM.
`CCCCCCCCCCCCCCCCCCNc1ccn(C2OC(COP(=O)(O)OCC3OC(n4cc(F)c(NCCCCCCCCCCCCCCCCCC)nc4=O)CC3O)C(O)C2O)c(=O)n1` (stereo not given) gave a TGI (HCT-116 colon) greater than 100 µM, a TGI (UACC-257 melanoma) greater than 100 µM and a TGI (SF-268 CNS) greater than 100 µM. It also gave a TGI (MDA-MB-435) greater than 100 µM, a TGI (A549 NSCLC) greater than 100 µM and a TGI (EKVX NSCLC) greater than 100 µM. For the same molecule, the TGI (RPMI-8226 leukemia) was greater than 100 µM, the TGI (LOX IMVI melanoma) was greater than 100 µM and the TGI (NCI-H226 lung) was greater than 100 µM. It also gave a TGI (SF-539 CNS) greater than 100 µM.
`CSc1n[nH]c(N)c1C(=O)Nc1ccc(C)cc1` showed a TGI (HCT-116 colon) greater than 100 µM, a TGI (UACC-257 melanoma) greater than 100 µM and a TGI (SF-268 CNS) greater than 100 µM. The TGI (MDA-MB-435) was greater than 100 µM, the TGI (A549 NSCLC) was greater than 100 µM and the TGI (EKVX NSCLC) was greater than 100 µM. It also gave a TGI (RPMI-8226 leukemia) greater than 100 µM, a TGI (LOX IMVI melanoma) greater than 100 µM and a TGI (NCI-H226 lung) greater than 100 µM. The TGI (SF-539 CNS) was greater than 100 µM.
`Cc1c2c(n(CCc3ccc(Cl)cc3)c1C)NC(c1ccccc1)C(C#N)S2(=O)=O` (stereo not given) showed a TGI (HCT-116 colon) greater than 100 µM, a TGI (UACC-257 melanoma) greater than 100 µM and a TGI (SF-268 CNS) greater than 100 µM. For the same molecule, the TGI (MDA-MB-435) was greater than 66.9 µM, the TGI (A549 NSCLC) was greater than 100 µM and the TGI (EKVX NSCLC) was greater than 100 µM. For the same molecule, the TGI (RPMI-8226 leukemia) was 57.8 µM, the TGI (LOX IMVI melanoma) was greater than 75 µM and the TGI (NCI-H226 lung) was greater than 100 µM. It also gave a TGI (SF-539 CNS) greater than 100 µM.
For `CC(=O)c1c(C(F)(F)F)n([O-])c2cc(Cl)c(Cl)cc2[n+]1=O`, the TGI (HCT-116 colon) was 1.61 µM, the TGI (UACC-257 melanoma) was 2.11 µM and the TGI (SF-268 CNS) was 2.53 µM. The TGI (MDA-MB-435) was 2.67 µM, the TGI (A549 NSCLC) was 1.91 µM and the TGI (EKVX NSCLC) was 2.89 µM. The TGI (RPMI-8226 leukemia) was 0.353 µM, the TGI (LOX IMVI melanoma) was 0.489 µM and the TGI (NCI-H226 lung) was 3.08 µM. The TGI (SF-539 CNS) was 2.46 µM.
In the case of `O=C(Nc1nc2ccccc2s1)c1cc([N+](=O)[O-])ccc1Cl`, the TGI (HCT-116 colon) is reported as greater than 100 µM, the TGI (UACC-257 melanoma) is reported as greater than 100 µM and the TGI (SF-268 CNS) is reported as 62 µM. It also gave a TGI (MDA-MB-435) greater than 100 µM, a TGI (A549 NSCLC) greater than 100 µM and a TGI (EKVX NSCLC) greater than 100 µM. For the same molecule, the TGI (RPMI-8226 leukemia) was greater than 100 µM, the TGI (LOX IMVI melanoma) was 13.7 µM and the TGI (NCI-H226 lung) was greater than 100 µM. The TGI (SF-539 CNS) was 28.5 µM.
`Cc1ccc2c(c1C)C(=O)/C(=C/c1ccccc1C(=O)O)C2` gave a TGI (HCT-116 colon) greater than 100 µM, a TGI (UACC-257 melanoma) greater than 100 µM and a TGI (SF-268 CNS) greater than 100 µM. The TGI (MDA-MB-435) was greater than 100 µM, the TGI (A549 NSCLC) was greater than 100 µM and the TGI (EKVX NSCLC) was greater than 100 µM. For the same molecule, the TGI (RPMI-8226 leukemia) was greater than 100 µM, the TGI (LOX IMVI melanoma) was greater than 100 µM and the TGI (NCI-H226 lung) was greater than 100 µM. It also gave a TGI (SF-539 CNS) greater than 100 µM.
`O=c1c2cc(I)ccc2nc(-c2cccs2)n1-c1ccc(O)cc1` was tested, and the TGI (HCT-116 colon) was 27.4 µM, the TGI (UACC-257 melanoma) was 22.1 µM and the TGI (SF-268 CNS) was 32.8 µM. The TGI (MDA-MB-435) was 30.8 µM, the TGI (A549 NSCLC) was 27.4 µM and the TGI (EKVX NSCLC) was 33.4 µM. For the same molecule, the TGI (RPMI-8226 leukemia) was 18.3 µM, the TGI (LOX IMVI melanoma) was 28.5 µM and the TGI (NCI-H226 lung) was 35.9 µM. For the same molecule, the TGI (SF-539 CNS) was 14.5 µM.
Molecule `C[C@@H]1CC[C@H]2C(C(O)CCCCC(O)C3=C(C(F)(F)F)O[C@@H]4O[C@@]5(C)CC[C@H]6[C@H](C)CC[C@@H]3[C@@]46OO5)=C(C(F)(F)F)O[C@@H]3O[C@@]4(C)CC[C@@H]1[C@]32OO4` (stereo not given in full) has a GI50 (HCT-116 colon) of 7.17 µM, a TGI (HCT-116 colon) greater than 100 µM and a GI50 (UACC-257 melanoma) of 14.9 µM. The TGI (UACC-257 melanoma) was greater than 100 µM, the GI50 (SF-268 CNS) was 19.5 µM and the TGI (SF-268 CNS) was greater than 100 µM. It also gave a GI50 (MDA-MB-435) of 10.5 µM, a TGI (MDA-MB-435) greater than 100 µM and a GI50 (A549 NSCLC) of 8.87 µM. For the same molecule, the TGI (A549 NSCLC) was greater than 100 µM, the GI50 (EKVX NSCLC) was 31.9 µM and the TGI (EKVX NSCLC) was greater than 100 µM. For the same molecule, the GI50 (RPMI-8226 leukemia) was 5.06 µM, the TGI (RPMI-8226 leukemia) was greater than 100 µM and the GI50 (LOX IMVI melanoma) was 3.12 µM. For the same molecule, the TGI (LOX IMVI melanoma) was 11.8 µM, the GI50 (NCI-H226 lung) was 33.6 µM and the TGI (NCI-H226 lung) was greater than 100 µM. It also gave a GI50 (SF-539 CNS) of 90.7 µM and a TGI (SF-539 CNS) greater than 100 µM.
Molecule `c1ccc2c(c1)CCc1c-2n(CCN2CCOCC2)c2ccccc12` has a TGI (HCT-116 colon) greater than 100 µM, a TGI (UACC-257 melanoma) greater than 100 µM and a TGI (SF-268 CNS) greater than 100 µM. For the same molecule, the TGI (MDA-MB-435) was greater than 100 µM, the TGI (A549 NSCLC) was greater than 100 µM and the TGI (EKVX NSCLC) was greater than 100 µM. It also gave a TGI (RPMI-8226 leukemia) greater than 100 µM, a TGI (LOX IMVI melanoma) greater than 100 µM and a TGI (NCI-H226 lung) greater than 100 µM. The TGI (SF-539 CNS) was greater than 100 µM.
`CC(=O)Oc1c2oc3ccc(Cl)cc3c(=O)c2c(O)c2ccsc12` was tested, and the TGI (HCT-116 colon) was greater than 100 µM, the TGI (UACC-257 melanoma) was greater than 100 µM and the TGI (SF-268 CNS) was greater than 100 µM. The TGI (MDA-MB-435) was greater than 100 µM, the TGI (A549 NSCLC) was greater than 100 µM and the TGI (EKVX NSCLC) was greater than 100 µM. For the same molecule, the TGI (RPMI-8226 leukemia) was greater than 100 µM, the TGI (LOX IMVI melanoma) was greater than 100 µM and the TGI (NCI-H226 lung) was greater than 100 µM. It also gave a TGI (SF-539 CNS) greater than 100 µM.
`COc1ccc(-n2c(=O)n(C)c(=O)n2-c2ccc(OC)cc2)cc1` was tested, and the TGI (HCT-116 colon) was greater than 100 µM, the TGI (UACC-257 melanoma) was greater than 100 µM and the TGI (SF-268 CNS) was greater than 100 µM. It also gave a TGI (MDA-MB-435) greater than 100 µM, a TGI (A549 NSCLC) greater than 100 µM and a TGI (EKVX NSCLC) greater than 100 µM. The TGI (RPMI-8226 leukemia) was greater than 100 µM, the TGI (LOX IMVI melanoma) was greater than 100 µM and the TGI (NCI-H226 lung) was greater than 100 µM. It also gave a TGI (SF-539 CNS) greater than 100 µM.
Work on `CSC1=N/C(=C\c2ccco2)C(=O)N1CN1CCOCC1` yielded a TGI (HCT-116 colon) greater than 66.9 µM, a TGI (UACC-257 melanoma) greater than 100 µM and a TGI (SF-268 CNS) greater than 78.3 µM. For the same molecule, the TGI (MDA-MB-435) was greater than 100 µM, the TGI (A549 NSCLC) was greater than 100 µM and the TGI (EKVX NSCLC) was greater than 100 µM. The TGI (RPMI-8226 leukemia) was greater than 80.4 µM, the TGI (LOX IMVI melanoma) was greater than 100 µM and the TGI (NCI-H226 lung) was greater than 100 µM. It also gave a TGI (SF-539 CNS) of 35.3 µM.
With `COC(=O)c1c(O)ccc2c1c1c(n2Cc2cccc(C)c2)C(=O)c2ccccc2C1=O` the TGI (HCT-116 colon) was 20.2 µM, the TGI (UACC-257 melanoma) was 31.2 µM and the TGI (SF-268 CNS) was 25.9 µM. For the same molecule, the TGI (MDA-MB-435) was 23.3 µM, the TGI (A549 NSCLC) was 20.3 µM and the TGI (EKVX NSCLC) was 37.9 µM. It also gave a TGI (RPMI-8226 leukemia) of 16.9 µM, a TGI (LOX IMVI melanoma) of 26.6 µM and a TGI (NCI-H226 lung) of 38.8 µM. For the same molecule, the TGI (SF-539 CNS) was 28.2 µM.
Molecule `O=C1/C(=N\S(=O)(=O)c2ccccc2)C([n+]2ccc(Cc3ccccc3)cc2)=C([O-])c2ccccc21` has a TGI (HCT-116 colon) of 2.46 µM, a TGI (UACC-257 melanoma) of 2.54 µM and a TGI (SF-268 CNS) of 3.9 µM. It also gave a TGI (MDA-MB-435) of 0.377 µM, a TGI (A549 NSCLC) of 3.74 µM and a TGI (EKVX NSCLC) of 3.27 µM. The TGI (RPMI-8226 leukemia) was greater than 100 µM, the TGI (LOX IMVI melanoma) was 1.83 µM and the TGI (NCI-H226 lung) was 3.73 µM. For the same molecule, the TGI (SF-539 CNS) was 3.45 µM.
